Test results as given in US11021472B2, “Use of compounds comprising two or more hydrophobic domains and a hydrophilic domain comprising PEG moieties for stabilization of a cell” (Roche Diagnostics Operations, Inc., priority 2013, dated 2021).
“And” between values parts separate entries of the source, which are not always exact repeats. Equal entries are not always repeated.

Columns and labels:
Epithelial cells = experiment: Labelling (staining) of cells with labelled molecules; format: cell-based
Excerpt: (§1) As shown in the examples, a compound for use according to the invention, wherein the compound comprises a label moiety, is contacted with a cell. As labelling is preferably done with viable or potentially viable cells, the cells are typically present in an aqueous solution, which is preferably buffered and/or contains nutrients, e.g. the cells are suspended in PBS. The labeled compound for use according to the invention may be added to the cells, e.g. in form of a solution, e.g. as aqueous solution by methods known in the art, as pipetting.

NIH 3T3 = experiment: as above; format: cell-based
Excerpt: as §1

Hela = experiment: as above; format: cell-based
Excerpt: as §1

MDA-MB468 = experiment: as above; format: cell-based
Excerpt: as §1

WBCs [1] = experiment: as above; format: cell-based
Excerpt: as §1

Jurkats = experiment: as above; format: cell-based
Excerpt: as §1

U937 = experiment: as above; format: cell-based
Excerpt: as §1

CHO = experiment: as above; format: cell-based
Excerpt: as §1

COS 7 = experiment: as above; format: cell-based
Excerpt: as §1

WBCs [2] = experiment: Recovery rate of cells after immobilization on streptavidin (SA) plate; format: cell-based; conditions: WBCs, 100 nmol/10e6 cells
Protocol: X=hydrophobic moiety, […]=fluorescein In the following experiment, the recovery rate of cells was determined.

WBC [3] = conditions: Example 5 B; centrifugation 10 min, 300×g
WBC [4] = experiment: WBC recovery rate after centrifugation (stabilization of cells); format: cell-based, human; conditions: Centrifugation 10 min, 300×g
Protocol: (§2) Centrifugation characteristics: 10 min, 300×g.
as §2
The respective left, middle and right columns per assay represent different Experimenters 1, 2 and 3. […] Centrifugation characteristics: 10 min, 300×g. Molecule: Cholesteryl-TEG-Cholesteryl-TEG-(SpacerC18)7-Fluos-Biotin-TEG.
(§3) Following molecules were tested: 1234: 5′-(Cholesteryl-TEG)2-Spacer C18-dT-Biotin-TEG-3′; 1248: 3′-(Cholesteryl-TEG)2-PEG2000-Fluos-Biotin-TEG-5′ INVERS; 1254: 3′-(Cholesteryl-TEG)2-SpacerC18-Fluos-Biotin-TEG-5′ INVERS; 1255: 3′-(Myristic acid)2-PEG2000-dT-Biotin-TEG-5′ INVERS. […] Centrifugation characteristics: 20 min, 300×g. Respective left column: 10 min incubation with molecule. Respective middle column: 1 h min incubation with molecule. Respective right column: 2 h incubation with molecule.
Following molecules were tested: 1255: 3′-(Myristic acid)2-PEG2000-dT-Biotin-TEG-5′ INVERS; 1234: 5′-(Cholesteryl-TEG)2-Spacer C18-dT-Biotin-TEG-3′; 1248: 3′-(Cholesteryl-TEG)2-PEG2000-Fluos-Biotin-TEG-5′ INVERS; 1254: 3′-(Cholesteryl-TEG)2-SpacerC18-Fluos-Biotin-TEG-5′ INVERS. […] Centrifugation characteristics: 20 min, 500×g. Respective left column: 10 min incubation with molecule. Respective middle column: 1 h min incubation with molecule. Respective right column: 3 h incubation with molecule.
as §3, with “tested: 1255: 3′-(Myristic acid)2-PEG2000-dT-Biotin-TEG-5′ INVERS;” for “tested:”, “3′-(Cholesteryl-TEG)2-SpacerC18-Fluos-Biotin-TEG-5′” for “3′-(Cholesteryl-TEG)2-SpacerC18-Fluos-Biotin-TEG-5′ INVERS; 1255: 3′-(Myristic acid)2-PEG2000-dT-Biotin-TEG-5′”, “1000×g.” for “300×g.”
Stabilization is typically determined on a population of cells, e.g. 2, 10, 100 or more cells, and the respective mean viability of the cell populations are compared. […] Viability may be determined by determining cell morphology, cell viability and/or cell recovery. Methods for determining cell morphology, cell viability and cell recovery are known in the art. […] For determining cell morphology, visual inspection by microscopy may be performed. For determining cell viability, a cell viability test using WST-1 proliferation kit (RAS) may be performed.

Compound	staining of cells by labelled molecule (Epithelial cells)	staining of cells by labelled molecule (NIH 3T3)	staining of cells by labelled molecule (Hela)	staining of cells by labelled molecule (MDA-MB468)	staining of cells by labelled molecule (WBCs [1])	staining of cells by labelled molecule (Jurkats)	staining of cells by labelled molecule (U937)	staining of cells by labelled molecule (CHO)	staining of cells by labelled molecule (COS 7)	Recovery Rate (WBCs [2]; listed as Biotin-PEG-Lysin-(C18)2)	Recovery Rate (WBCs [2]; may be to due 1.5-2 h exposure of plate)	time within which cell immobilization is enabled (WBC [3])	WBC recovery rate after centrifugation: dependence on molecule concentration (WBC [4])
5′-CholesterylTEG-CholesterylTEG-PEG2000-Fluos-3′ [BMO 29.891133]	✓	✓	✓	✓	50-200 ms) ✓	✓	✓	✓	✓	–	–	–	–
CCCCCCCCCCCCCCCCCCN1C(=CC=CC2=[N+](CCCCCCCCCCCCCCCCCC)c3ccccc3C2(C)C)C(C)(C)c2ccccc21.[O-][Cl+3]([O-])([O-])[O-] [1,1′-Dioctadecyl-3,3,3′,3′-tetramethylindocarbocyanin perchlorate]	✓	✓*	✓	✓	✓ not all	✓	✓	✓	✓	–	–	–	–
CCCCC/C=C\C/C=C\CCCCCCCCN1C(=CC=CC2=[N+](CCCCCCCC/C=C\C/C=C\CCCCC)c3ccccc3C2(C)C)C(C)(C)c2ccccc21.[O-][Cl+3]([O-])([O-])[O-] [Linol, 1,1′-dilinoleyl-3,3,3′,3′-tetramethylindocarbocyanine perchlorate]	✓	✓	✓	✓	20-50 ms) ✓	✓	✓	✓	✓	–	–	–	–
CCCCCCCCCCCCCCCCCCCCCC[N+]1=C(/C=C/C=C2/N(CCCCCCCCCCCCCC)c3ccccc3C2(C)C)C(C)(C)c2ccccc21.[I-] [PKH26]	✓ not all	✓	✓*	✓	not stained) ✓	✓	✓	✓	✓	–	–	–	–
CCCCCCCCCCCCCCCC(=O)OC[C@H](COP(=O)(O)OCCNC(=O)CCc1ccc2n1[B-](F)(F)[N+]1=C(C)C=C(C)C1=C2)OC(=O)CCCCCCCCCCCCCCC.CCN(CC)CC [Phosphatidylethanolamine, N-(4,4-difluoro-5,7-dimethyl-4-bora-3a,4a-diaza-s-indacene-3-propionyl)-1,2-dihexadecanoyl-sn-glycero-3-phosphoethanolamine, triethylammonium salt]	–	–	x/✓ very weak	–	–	–	–	–	–	–	–	–	–
CCCCCCCCCCCCC/C=C/[C@@H](O)[C@H](COP(=O)([O-])OCC[N+](C)(C)C)NC(=O)CCCCc1ccc2n1[B-](F)(F)[N+]1=C(C)C=C(C)C1=C2 [Sphingomyelin, N-(4,4-difluoro-5,7-dimethyl-4-bora-3a,4a-diaza-s-indacene-3-pentanoyl)sphingosyl phosphocholine]	✓	–	✓	–	(x)- very bad	–	–	x very weak	–	–	–	–	–
Biotin-PEG-Lys-(C18)2	–	–	–	–	–	–	–	–	–	83.9% and 75.0% and 66.0%	33.0%	≤ 3.5 h	The higher the molecule concentration, the higher the cell recovery rate after centrifugation
